Test results as given in the supplement of paper PMC13380429.

Key:
Settings in all cases: 72 h
Caco-2 [1] = assay: cell viability relative to DMSO; higher = less toxic
Calu-3 [2] = assay: as above
HepG2 [3] = assay: as above
U2OS [4] = assay: as above
Vero E6 [5] = assay: as above
Caco-2 [6] = assay: relative viability EC50 (midpoint between 100% and the lowest measured viability); higher = less toxic
Calu-3 [7] = assay: as above
HepG2 [8] = assay: as above
U2OS [9] = assay: as above
Vero E6 [10] = assay: as above
Caco-2 [11] = assay: drug sensitivity score (DSS) for viability; higher = more toxic; extreme values may be limits of the assay
Calu-3 [12] = assay: as above
HepG2 [13] = assay: as above
U2OS [14] = assay: as above
Vero E6 [15] = assay: as above

| Structure (SMILES) | cell viability (Caco-2 [1]; 1 nM) [%] | cell viability (Caco-2 [1]; 10 nM) [%] | cell viability (Caco-2 [1]; 100 nM) [%] | cell viability (Caco-2 [1]; 1000 nM) [%] | cell viability (Caco-2 [1]; 10000 nM) [%] | cell viability (Calu-3 [2]; 1 nM) [%] | cell viability (Calu-3 [2]; 10 nM) [%] | cell viability (Calu-3 [2]; 100 nM) [%] | cell viability (Calu-3 [2]; 1000 nM) [%] | cell viability (Calu-3 [2]; 10000 nM) [%] | cell viability (HepG2 [3]; 1 nM) [%] | cell viability (HepG2 [3]; 10 nM) [%] | cell viability (HepG2 [3]; 100 nM) [%] | cell viability (HepG2 [3]; 1000 nM) [%] | cell viability (HepG2 [3]; 10000 nM) [%] | cell viability (U2OS [4]; 1 nM) [%] | cell viability (U2OS [4]; 10 nM) [%] | cell viability (U2OS [4]; 100 nM) [%] | cell viability (U2OS [4]; 1000 nM) [%] | cell viability (U2OS [4]; 10000 nM) [%] | cell viability (Vero E6 [5]; 1 nM) [%] | cell viability (Vero E6 [5]; 10 nM) [%] | cell viability (Vero E6 [5]; 100 nM) [%] | cell viability (Vero E6 [5]; 1000 nM) [%] | cell viability (Vero E6 [5]; 10000 nM) [%] | relative viability EC50 (Caco-2 [6]) [µM] | relative viability EC50 (Calu-3 [7]) [µM] | relative viability EC50 (HepG2 [8]) [µM] | relative viability EC50 (U2OS [9]) [µM] | relative viability EC50 (Vero E6 [10]) [µM] | drug sensitivity score (Caco-2 [11]) | drug sensitivity score (Calu-3 [12]) | drug sensitivity score (HepG2 [13]) | drug sensitivity score (U2OS [14]) | drug sensitivity score (Vero E6 [15]) |
| --- | --- | --- | --- | --- | --- | --- | --- | --- | --- | --- | --- | --- | --- | --- | --- | --- | --- | --- | --- | --- | --- | --- | --- | --- | --- | --- | --- | --- | --- | --- | --- | --- | --- | --- | --- |
| O=[N+]([O-])c1cc(Cl)ccc1S(=O)(=O)N1CCN(Cc2ccccc2)CC1 [RN-1747] | 94.3 | 94 | 96.2 | 106 | 99.9 | 96.4 | 104 | 94.6 | 102 | 106 | 105 | 92.9 | 104 | 86.9 | 104 | 94.6 | 100 | 96.2 | 102 | 106 | 99.5 | 92.2 | 93.4 | 96.1 | 102 | > 10 | > 10 | > 10 | > 10 | > 10 | 0 | 0 | 0 | 0 | 0 |
| NC(=O)c1[nH]cnc1O [SM-108] | 91.2 | 101 | 102 | 104 | 97.9 | 96.2 | 89 | 101 | 107 | 99.8 | 95 | 93.9 | 95.8 | 102 | 98.7 | 100 | 95.7 | 104 | 96.6 | 104 | 102 | 108 | 99.7 | 103 | 100 | > 10 | > 10 | > 10 | > 10 | > 10 | 0 | 0 | 0 | 0 | 0 |
| CCc1c2c(nc3ccc(O)cc13)-c1cc3c(c(=O)n1C2)COC(=O)[C@]3(O)CC [SN-38] | 99.4 | 89.5 | 73 | 34.1 | 20.7 | 112 | 85.9 | 54 | 25.1 | 28.8 | 86.6 | 48.6 | 29.5 | 5.6 | 2.4 | 107 | 102 | 79.9 | 25.8 | 4.9 | 102 | 101 | 71.2 | 58.3 | 9.6 | 0.183 | 0.0579 | 0.0122 | 0.326 | 0.65 | 15.6 | 19.7 | 32.4 | 16.2 | 11.9 |
